Assay results as given in US10722520B2, “Heterocyclic compounds and their use in preventing or treating bacterial infections” (MUTABILIS, priority 2016, dated 2020).

How the values were obtained:
[1] = target: CMY-37 (Citrobacter freundii, UniProt P05193); conditions: read-out: IC50 β-lactamase CMY-37; class (C); nitrocefin 200 μM, 30-min pre-incubation, enzyme 0.2 nM
[2] = test system: E. coli RGN238; test: microbe, parasite or virus in culture; format: cell-based; conditions: strain RGN238: E. coli; OXA-1
Method: Log phase bacterial suspensions were adjusted to a final density of 5×10^5 cfu/mL in cation-adjusted Mueller-Hinton broth (Becton-Dickinson) and added to each well (98 μL). Microplates were incubated for 16-20 h at 35° C. in ambient air. The MIC of the compounds was defined as the lowest concentration of said compounds that prevented bacterial growth as read by visual inspection.

[3] = test system: E. coli UFR32; test: MIC of ceftazidime (CAZ) at fixed concentration of compound (synergy), broth microdilution; format: cell-based; conditions: MIC of ceftazidime with compound fixed at 4 μg/mL; strain UFR32 (E. coli)
In short: (§1)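 Step one, log-phase suspension set to 5×10^5 cfu/mL final in CA-MHB. Step two, incubation at 35° C under ambient air for 16-20 h. Step three, visual reading of the lowest growth-free concentration as MIC.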

[4] = test system: E. coli RGN238; test: as above; format: cell-based; conditions: MIC of ceftazidime with compound fixed at 4 μg/mL; strain RGN238 (E. coli)
In short: as §1

[5] = test system: E. coli UFR39; test: as above; format: cell-based; conditions: MIC of ceftazidime with compound fixed at 4 μg/mL; strain UFR39 (E. coli)
In short: as §1

[6] = test system: K. pneumoniae BAA-1898; test: as above; format: cell-based; conditions: MIC of ceftazidime with compound fixed at 4 μg/mL; strain BAA-1898 (K. pneumoniae)
In short: as §1

[7] = test system: E. coli UFR18; test: as above; format: cell-based; conditions: MIC of ceftazidime with compound fixed at 4 μg/mL; strain UFR18 (E. coli)
In short: as §1

[8] = test system: E. coli UFR74; test: as above; format: cell-based; conditions: MIC of ceftazidime with compound fixed at 4 μg/mL; strain UFR74 (E. coli)
In short: as §1

[9] = test system: P. aeruginosa CIP107051; test: as above; format: cell-based; conditions: MIC of ceftazidime with compound fixed at 4 μg/mL; strain CIP107051 (P. aeruginosa)
In short: as §1

[10] = test system: K. pneumoniae UFR68; test: as above; format: cell-based; conditions: MIC of ceftazidime with compound fixed at 4 μg/mL; strain UFR68 (K. pneumoniae)
In short: as §1

[11] = test system: E. cloacae P99; test: as above; format: cell-based; conditions: MIC of ceftazidime with compound fixed at 4 μg/mL; strain P99 (E. cloacae)
In short: as §1

[12] = test system: K. oxytoca UFR21; test: as above; format: cell-based; conditions: MIC of ceftazidime with compound fixed at 4 μg/mL; strain UFR21 (K. oxytoca)
In short: as §1

[13] = test system: E. coli UFR61O; test: as above; format: cell-based; conditions: MIC of ceftazidime with compound fixed at 4 μg/mL; strain UFR61O (E. coli)
In short: as §1

[14] = test system: K. pneumoniae UFR77; test: as above; format: cell-based; conditions: MIC of ceftazidime with compound fixed at 4 μg/mL; strain UFR77 (K. pneumoniae)
In short: as §1

[15] = test system: K. pneumoniae 160143; test: as above; format: cell-based; conditions: MIC of ceftazidime with compound fixed at 4 μg/mL; strain 160143 (K. pneumoniae)
In short: as §1

[16] = test system: E. cloacae 260508; test: as above; format: cell-based; conditions: MIC of ceftazidime with compound fixed at 4 μg/mL; strain 260508 (E. cloacae)
In short: as §1

[17] = test system: K. pneumoniae 200047; test: as above; format: cell-based; conditions: MIC of ceftazidime with compound fixed at 4 μg/mL; strain 200047 (K. pneumoniae)
In short: as §1

[18] = test system: E. coli UFR41; test: as above; format: cell-based; conditions: MIC of ceftazidime with compound fixed at 4 μg/mL; strain UFR41 (E. coli)
In short: as §1

[19] = test system: E. coli 190317; test: as above; format: cell-based; conditions: MIC of ceftazidime with compound fixed at 4 μg/mL; strain 190317 (E. coli)
In short: as §1

[20] = test system: E. cloacae UFR51; test: as above; format: cell-based; conditions: MIC of ceftazidime with compound fixed at 4 μg/mL; strain UFR51 (E. cloacae)
In short: as §1

[21] = test system: K. pneumoniae UFR24; test: as above; format: cell-based; conditions: MIC of ceftazidime with compound fixed at 4 μg/mL; strain UFR24 (K. pneumoniae)
In short: as §1

[22] = test system: E. cloacae UFR70; test: as above; format: cell-based; conditions: MIC of ceftazidime with compound fixed at 4 μg/mL; strain UFR70 (E. cloacae)
In short: as §1

[23] = test system: E. coli 131119; test: as above; format: cell-based; conditions: MIC of ceftazidime with compound fixed at 4 μg/mL; strain 131119 (E. coli)
In short: as §1

[24] = test system: K. pneumoniae 6299; test: as above; format: cell-based; conditions: MIC of ceftazidime with compound fixed at 4 μg/mL; strain 6299 (K. pneumoniae)
In short: as §1

[25] = test system: E. cloacae UFR85; test: as above; format: cell-based; conditions: MIC of ceftazidime with compound fixed at 4 μg/mL; strain UFR85 (E. cloacae)
In short: as §1

[26] = target: TEM-1 (Escherichia coli, UniProt P62593); conditions: read-out: IC50 β-lactamase TEM-1; class (A); nitrocefin 200 μM, 30-min pre-incubation, enzyme 0.1 nM
Chain of TEM-1 (P62593 24-286 limits assumed): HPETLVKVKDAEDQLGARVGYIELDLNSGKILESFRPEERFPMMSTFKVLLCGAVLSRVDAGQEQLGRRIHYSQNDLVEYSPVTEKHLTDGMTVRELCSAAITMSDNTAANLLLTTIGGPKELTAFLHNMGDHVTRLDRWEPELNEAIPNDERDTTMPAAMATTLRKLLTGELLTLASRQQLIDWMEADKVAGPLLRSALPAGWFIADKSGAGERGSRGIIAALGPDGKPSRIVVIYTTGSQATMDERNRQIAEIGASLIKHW

[27] = target: CTX-M-15 (Escherichia coli, UniProt Q9EXV5); conditions: read-out: IC50 β-lactamase CTX-M-15; class (A); nitrocefin 200 μM, 30-min pre-incubation, enzyme 0.4 nM
Chain of CTX-M-15 (Q9EXV5 29-291, species assumed): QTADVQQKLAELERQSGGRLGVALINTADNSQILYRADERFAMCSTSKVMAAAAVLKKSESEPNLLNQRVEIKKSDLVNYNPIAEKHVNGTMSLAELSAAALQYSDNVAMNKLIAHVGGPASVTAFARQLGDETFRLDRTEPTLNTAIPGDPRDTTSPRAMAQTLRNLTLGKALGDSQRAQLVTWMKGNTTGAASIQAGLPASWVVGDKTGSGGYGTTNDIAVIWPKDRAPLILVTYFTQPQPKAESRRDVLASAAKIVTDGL

[28] = target: OXA-48 (Klebsiella pneumoniae, UniProt Q6XEC0); conditions: read-out: IC50 β-lactamase OXA-48; class (D); nitrocefin 200 μM, 30-min pre-incubation, enzyme 0.3 nM
Chain of OXA-48 (Q6XEC0 23-265, looked up, species assumed): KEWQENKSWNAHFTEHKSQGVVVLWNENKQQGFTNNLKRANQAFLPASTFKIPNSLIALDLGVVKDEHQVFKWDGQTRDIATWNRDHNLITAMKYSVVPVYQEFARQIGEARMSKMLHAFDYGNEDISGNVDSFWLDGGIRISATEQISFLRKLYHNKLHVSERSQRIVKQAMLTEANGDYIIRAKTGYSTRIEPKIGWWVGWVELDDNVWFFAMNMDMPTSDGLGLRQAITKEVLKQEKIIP

[29] = target: KPC-2 (Klebsiella pneumoniae, UniProt Q9F663); conditions: read-out: IC50 β-lactamase KPC-2; class (A); nitrocefin 200 μM, 30-min pre-incubation, enzyme 1 nM
Chain of KPC-2 (Q9F663 25-293, looked up, species assumed): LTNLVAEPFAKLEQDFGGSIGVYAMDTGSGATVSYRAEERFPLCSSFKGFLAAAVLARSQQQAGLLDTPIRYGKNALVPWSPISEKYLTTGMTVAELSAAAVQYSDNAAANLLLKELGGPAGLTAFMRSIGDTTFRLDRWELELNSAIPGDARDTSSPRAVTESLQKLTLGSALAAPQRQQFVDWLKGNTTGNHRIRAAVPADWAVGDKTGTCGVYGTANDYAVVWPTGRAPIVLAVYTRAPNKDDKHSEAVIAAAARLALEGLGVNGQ

Chain of CMY-37 (P05193 21-381 limits assumed): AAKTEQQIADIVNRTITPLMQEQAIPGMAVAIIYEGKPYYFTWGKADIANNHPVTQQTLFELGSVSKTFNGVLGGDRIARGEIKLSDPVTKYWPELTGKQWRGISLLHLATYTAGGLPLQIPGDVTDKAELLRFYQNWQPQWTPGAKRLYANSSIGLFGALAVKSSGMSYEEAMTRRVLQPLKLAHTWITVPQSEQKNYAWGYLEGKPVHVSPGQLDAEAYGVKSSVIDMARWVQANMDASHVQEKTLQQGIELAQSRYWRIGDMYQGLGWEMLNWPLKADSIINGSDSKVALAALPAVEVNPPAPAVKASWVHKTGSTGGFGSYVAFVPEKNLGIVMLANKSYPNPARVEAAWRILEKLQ

O=C1N2CC(n3ccnn3)=CC(C2)N1OS(=O)(=O)[O-].[Na+] (centres unmarked) [Example 2, sodium [7-oxo-3-(triazol-1-yl)-1,6-diazabicyclo[3.2.1]oct-3-en-6-yl]sulfate]
560 pM: IC50 [26]
4700 pM: IC50 [29]
4: MIC combination of CAZ and compounds of the invention at 4 μg/mL [9]
670 pM: IC50 [27]
<0.25: MIC combination of CAZ and compounds of the invention at 4 μg/mL [3] | MIC combination of CAZ and compounds of the invention at 4 μg/mL [4] | MIC combination of CAZ and compounds of the invention at 4 μg/mL [5] | MIC combination of CAZ and compounds of the invention at 4 μg/mL [6] | MIC combination of CAZ and compounds of the invention at 4 μg/mL [7] | MIC combination of CAZ and compounds of the invention at 4 μg/mL [8] | MIC combination of CAZ and compounds of the invention at 4 μg/mL [10] | MIC combination of CAZ and compounds of the invention at 4 μg/mL [11] | MIC combination of CAZ and compounds of the invention at 4 μg/mL [12] | MIC combination of CAZ and compounds of the invention at 4 μg/mL [13] | MIC combination of CAZ and compounds of the invention at 4 μg/mL [14] | MIC combination of CAZ and compounds of the invention at 4 μg/mL [15] | MIC combination of CAZ and compounds of the invention at 4 μg/mL [16] | MIC combination of CAZ and compounds of the invention at 4 μg/mL [17] | MIC combination of CAZ and compounds of the invention at 4 μg/mL [18] | MIC combination of CAZ and compounds of the invention at 4 μg/mL [19] | MIC combination of CAZ and compounds of the invention at 4 μg/mL [20] | MIC combination of CAZ and compounds of the invention at 4 μg/mL [22] | MIC combination of CAZ and compounds of the invention at 4 μg/mL [23] | MIC combination of CAZ and compounds of the invention at 4 μg/mL [24] | MIC combination of CAZ and compounds of the invention at 4 μg/mL [25]
≤0.25: MIC combination of CAZ and compounds of the invention at 4 μg/mL [21]
31000 pM: IC50 [1]
590 pM: IC50 [28]
2 µg/mL: MIC compounds of the invention alone [2]
